The values that follow come from patent US12061202B2, “Compositions and methods for bioluminescent detection using multifunctional probes” (Promega Corporation, priority 2019, dated 2024).

A word on the EC50: it is the midpoint of the concentration-response curve. The low end stands for an effect from little substance, the high end for a need for much substance.

For one assay, the system named is Raji target cells. Description: Bispecific T-cell engager (BiTE) target cell lysis, labeled Raji target cells with TALL-104 effector cells. As to conditions: Raji (1.67 μM Labeling probe); TALL-104 effector 2.5:1; 6 hours at 37° C. The assay is classed as cell-based. The procedure: BiTEs are a class of artificial bispecific monoclonal antibodies that are investigated for the use as anti-cancer drugs as they are used to direct the T cells' cytotoxic activity to target cells (e.g., cancer cells). As shown, Raji target cells (1.67 μM Labeling probe) and TALL-104 effector cells were co-cultured at 2.5:1 ratio (12,500 effector to 5,000 target) in a 96-well assay plate. Bincyto was titrated at indicated concentrations and assay plate was incubated for 6 hours at 37° C. prior to Nano-Glo® Luciferase Assay Substrate addition. Curves were generated following assay background subtraction as described in above. […] S/B=BiTE/no BiTE. % antibody dependent target cell lysis=100×(RLU [target+ effector+antibody]−RLU [target+ effector])/(RLU [target+ effector+digitonin]−RLU [target+ effector]).

The test system of another assay is Daudi cells. Description: Antibody dependent cellular cytotoxicity (ADCC), labeled Daudi cells co-cultured with PBMC. The assay is classed as cell-based. As to conditions: Daudi labeled with 1 μM Labeling Probe; PBMC E:T 20:1; 5 hours at 37° C. The method, then:
As shown in FIGS. 3A-3C, experiments were conducted to test antibody dependent cellular cytotoxicity (ADCC) in Daudi (FIGS. 3A-3B) and SKBR3 (FIG. 3C) cells labeled with the bifunctional probes of the present disclosure. Daudi and SKBR3 cells were labeled with 1 μM and 10 μM Labeling Probe respectively and co-cultured with peripheral blood mononuclear cells (PBMC; Cellular Technologies Limited) at an E:T ratio of 20:1 (100,000 effector to 5,000 target) with indicated antibody titrations for 5 hours at 37° C. prior to Nano-Glo® Luciferase Assay Substrate addition. […] Curves in FIGS. 3B and 3C were generated following assay background subtraction (RLU [Target cells+Effector cells+Detection Components]−RLU [Media+Detection Components]) using a four parametric variable slope algorithm in Prism.

Substance “Bincyto: bispecific T-cell engager (BiTE) titrated on Raji target cells with TALL-104 effector cells” registered an EC50 in the assay on Raji target cells of 5.38 µM.

In the case of “Rituximab: antibody titrated in ADCC assay on Daudi cells”, the EC50 in the assay with Daudi cells is 6.8 ng/mL.
